Data: patent US20030053952A1, “Therapeutic tool for vascular diseases” (Yasumi UCHIDA, priority 2001, published 2003)
“Also recorded” adds a separate entry of the source.

Experiments:
[1] = tested on: vascular progenitor cells; assay: Grafting of dye-eluting artificial grafts to canine common carotid artery (percentage stenosis, progenitor cell count); format: in vivo, beagle dogs; conditions: dye-eluting artificial graft, 3 months after grafting
Excerpt: In anesthetized beagle dogs, the bilateral sides of the neck were incised to expose both right and left common carotid arteries. An 8 F sheath was introduced into the right femoral artery through which a 8 F catheter was introduced into the aortic arch for angiography of the carotid arteries. A dye-eluting artificial graft was sutured to the common carotid arteries in side to end fashion to make a shunt between the right and left common carotid arteries. Then, a segment of right carotid artery proximal to and that of left distal to anastomoses were ligatured. Thus, the blood drained from the left to the right common carotid artery. Similarly in other group, grafts coated with bionate or Sanpren without dye were sutured to the arteries as control group. The dogs were cared for 3 months according to the guideline and angiography was repeated. Percentage stenosis of the sutured portion was compared between the dye and control groups. After cardiac arrest as mentioned above, the grafts and arteries were removed and were used for microscopic examinations.

[2] = tested on: vascular progenitor cells; assay: Implantation of dye-eluting stents into canine coronary artery (percentage stenosis, angioscopy, progenitor cell count); format: in vivo, beagle dogs; conditions: for Number of cells (250 × 250 μm^2), Adventitia / Number of cells (250 × 250 μm^2), Intima / Number of cells (250 × 250 μm^2), Media: dye-eluting stent, stented coronary segment, one month after implantation
Experimental: Beagle dogs of either sex was anesthetized with pentobarbital sodium (25 mg/kg, i.v.) and trachea was intubated for artificial respiration with air. The right side of the neck was incised longitudinally to expose right common carotid artery. An 8F sheath was introduced into the artery through which an 8F guiding catheter was introduced into the left coronary artery. After coronary angiography, a balloon catheter clinically used for PTCA was introduced to dilate anterior descending artery. Then, a balloon catheter with a dye-eluting stent on it was introduced into the dilated segment of left anterior descending artery and it was inflated at 9 atms to implant the stent. After recovery from anesthesia, the dogs were cared according the guideline of Jikei University School of Medicine. One month later, the dogs were anesthetized again and coronary angiography and angioscopy (Uchida Y: Coronary Angioscopy, Futura Publishing Co, NY, 2000) were performed to examine the changes in the stented coronary segment. […] Thereafter, the dogs were sacrificed with intracoronary pentobarbital and the heart was removed. The heart was fixed with 10% hormaldehyde solution for microscopic examination.
The coronary angiograms were used for calibration of the percentage stenosis, namely (diameter before stent implantation-minimum luminal diameter/diameter before stent implantation)×100 of the narrowest portion (minimum luminal diameter) in the stent and was compared. Student's t test was used for statistical analysis and when P<0.05, the value was considered significant.
The stented coronary segment was removed and cut into slice in 5 μm in thickness. The slices were stained with beta-actin antibody and the number of vascular progenitor cells per unit area was counted and was compared between the dye and control groups.

[3] = tested on: vascular progenitor cells; assay: Local delivery of dyes by porous balloon into balloon-injured coronary artery; count of migrated vascular progenitor cells; format: in vivo, beagle dogs; conditions: dogs
Experimental: Adult beagle dogs of either sexes weighing from 7 to 12 kg were anesthetized with pentobarbital sodium (25-30 mg/kg, i.v.) and the trachea was intubated for artificial respiration with air. The right side of the neck was longitudinally incised to expose the right common carotid artery and an 8 F sheath was introduced, through which an 8F guiding catheter was introduced into the left coronary ostium for angiography. After angiography, a balloon catheter (2.5 mm×20 mm) was introduced through the guiding catheter into the middle to distal segment of either the anterior descending or circumflex artery. Then, the balloon was inflated at 9 atms to
dilate the segment to induced disruption of the endothelium and internal elastic lamina. The balloon catheter was replaced by a porous balloon catheter (3 mm×20 mm) with multiple pores in the balloon (Clinical Supply Co, Gifu, Japan) for local delivery of dyes. Thereafter, 0.2 ml of 5% Evans blue saline solution was injected through the porous balloon into the dilated segment at 3 atms in 6 dogs and 0.5 ml of 5% Ethidium bromide saline solution
was injected similarly in 5 dogs. […] The dilated coronary segment and its surrounding tissues were removed and sliced, vascular progenitor cells were stained with beta-smooth muscle actin antibody (DAKO EPOS, Glostrup, Denmark) and the number of vascular progenitor cells/250×250 μm^2 was counted.

[4] = Preliminary in vitro elution of dye from double-layer coated stent immersed in water; format: physicochemical
Experimental: a) A soft polycarbonate urethane with risin bionate (Bionate 80A, Polimertech, USA) was used. Evans blue powder was dissolved in the bionate to make 20% Evans blue solution. A commercially available coronary stent (NIR stent, 3 mm×12 mm or Palmatz-Schatz stent, 3 mm×12 mm) was immersed into the solution for 10 min to form slowly eluting inner layer. Then, the stent was dried at room temperature. Evans blue powder was dissolved in distilled water to make 20% solution. The same stent was immersed into the solution for 10 min to make rapidly eluting outer layer. The stent was dried at room temperature. Then, the stent was sterilized with ethylene oxide gas. In the preliminary experiment in vitro, Evans blue began to elute from the outer layer immediately after and ceased to elute within 60 min after immersion into water.

Row | Time at which elution from the outer (rapidly eluting) layer ceased ([4]; stent coated from 20% aqueous dye solution, after immersion into water) [min] | Time at which elution from the inner (slowly eluting) layer began ([4]; stent coated from 20% dye in Bionate 80A, after immersion into water) [min] | Duration of elution from the inner (slowly eluting) layer ([4]; stent coated from 20% dye in Bionate 80A, immersion into water) | Compound | Number of cells (250 × 250 μm^2), vascular progenitor cells at the anastomosed portion of the common carotid artery [1] | Number of cells (250 × 250 μm^2), Adventitia [2] | Number of cells (250 × 250 μm^2), Intima [2] | Number of cells (250 × 250 μm^2), Media [2] | Percentage stenosis of the stented coronary segments ([2]; angiography, 4 weeks after implantation of dye-coated stents, vs stents without dye) | Angioscopic appearance of stenosis of the stented coronary segment ([2]; angioscopy, 4 weeks after stent implantation) | Migration of circulating vascular progenitor cells into the injured coronary wall [3]
1 | – | – | – | CC[n+]1c(-c2ccccc2)c2cc(N)ccc2c2ccc(N)cc21 [Ethidium bromide] | 11.1 ± 3.1 /250 × 250 μm^2 | 21.3 ± 9.9 /250 × 250 μm^2 | 8.3 ± 3.7 /250 × 250 μm^2 | 9.6 ± 5.0 /250 × 250 μm^2 | – | – | –
2 | ≤ 60 | 60 | up to one month | Cc1cc(-c2ccc(/N=N/c3ccc4c(S(=O)(=O)O)cc(S(=O)(=O)O)c(N)c4c3O)c(C)c2)ccc1/N=N/c1ccc2c(S(=O)(=O)O)cc(S(=O)(=O)O)c(N)c2c1O [Evans blue] | 13.4 ± 4.0 /250 × 250 μm^2 | 17.0 ± 7.1 /250 × 250 μm^2 | 7.1 ± 3.2 /250 × 250 μm^2 | 8.0 ± 4.0 /250 × 250 μm^2 | significantly smaller | stenosis was mild | no migration of the cells was observed; also recorded: inhibit migration
